Test results as given in patent US20260345555A1, “Compositions and Methods for Protecting Salivary Glands from Off-Target Radiation Damage” (University of Rochester, priority 2022, published 2026).
Structures can show the parent of a compound that is named as a salt.

Tested on: Reduced glutathione in salivary gland cell clusters (SGm)
Experiment: Glutathione assay in salivary gland tissue chip, 4 days post-radiation (15 Gy); also first screen of Selleck library at 100 μM
Type: cell-based, mouse
Settings: not given
Description: A salivary gland tissue chip was leveraged for high-content drug screening to identify novel radioprotective compounds (Song Y et al., Commun Biol., 2021, 4). The chip platform consists of an array of near-spherical microbubble (MB) cavities formed in poly(dimethylsiloxane) (PDMS). Each chip, containing ~50 MBs, affixed within wells of a 96-well plate (FIG. 1C). Primary salivary gland cell clusters (FIG. 1A), suspended in a poly(ethylene glycol) (PEG) hydrogel precursor and MMP-degradable peptide crosslinker solution together with the photoinitiator LAP, were applied to the chip allowing the clusters to deposit into the MBs (FIG. 1D). In situ polymerization of the hydrogel was achieved using long-wave, low intensity UV light. Over time, the cell clusters aggregate and proliferate to form SGm (FIG. 1C).
The glutathione assay was used to measure glutathione levels at various time points post-radiation to determine the optimal time point for detecting differences between 0 Gy and 15 Gy. Based on the data, the greatest signal separation was measured at 4 days post-irradiation (FIG. 9). This timepoint is similar to previous reports on decreases in glutathione post-radiation and was used for all experiments moving forward (Meeks L et al., Physiological Genomics, 2021, 53: 85-98).
The dose response to WR-1065 was examined to determine effective concentrations of WR-1065 to prevent the reduction of glutathione levels post-radiation. A SGm tissue chip was cultured for 4 days to allow spheres to form. The chip was then treated with WR-1065 30 minutes before and during radiation, followed by drug wash out with media 30 minutes post-radiation (FIG. 2A). This dosing scheme is consistent with the use of Amifostine clinically and with previous work. The glutathione assay was performed at 4 days post-radiation (FIG. 2A). […] Moreover, it is clinically relevant as 15-30 minutes before radiation, patients are administered Amifostine intravenously at 200 mg/m (Escobar A et al., IntechOpen, 2019, pp. 15-37; Eisbruch A, J Clin Oncol, 2011, 29: 119-121; Bardet, E. et al. Semin Oncol, 2002, 29, 57-60). Assuming an average adult body surface area of 17,000 cm^2 and a blood volume of 1.35 gallons (5.1 liters), Amifostine is administered at 300 μM (Mosteller, R. D. N Engl J Med 317, 1098 (1987)).
The glutathione and senescence assays were used to screen a library of FDA-approved drugs (Selleck Chemicals) at 100 μM. Drugs were first screened using the glutathione assay according to the timeline depicted in FIG. 2A. Any compound resulting in statistically similar glutathione levels compared to 0 Gy control was considered a hit (FIG. 4, grey circles). Hits with the glutathione assay were then tested with the senescence assay and considered a “double hit” if senescence levels were statistically similar to levels at 0 Gy (FIG. 4, black circles). […] While this hit rate is higher than many other drug screening reports (0.1-0.3%), this may be due to the statistical rigor afforded by the tissue chip format (Blanchard, C et al., Antimicrob Agents Chemother 2016, 60, 862-872; Colquhoun, J. M et al., Antibiotics (Basel) 2019, 8, 48). Additionally, phenotypic screens generally have higher hit rates than target-based screens (>1%) (Moffat, J. G et al., Nature Reviews Drug Discovery 2017, 16, 531-543; Rottman, M et al., Science 2010, 329, 1175-1180).
Mice were euthanized and the submandibular glands (SMG) were removed and chopped with a razor blade for 5 min. The tissue was then incubated in Hank's buffered salt solution (HBSS) containing 15 mM HEPES, 50 U/mL collagenase type II (Thermo Fischer 17101015), and 100 U/mL hyaluronidase (Sigma Aldrich H3506) at 37 °C for 30 min. Cells were centrifuged, then resuspended in HBSS with 15 mM HEPES and passed through 100 μm and 20 μm mesh filters to isolate clusters between 20-100 μm. The digestion protocol produces cell cluster sizes evenly distributed between 20 to 100 μm (Song, Y et al., Advanced Healthcare Materials). […]

Compound | Glutathione: Normalized mean intensity
O=P1(N(CCCl)CCCl)NCCCO1 (centres unmarked) [Clafen (Cyclophosphamide)] | 0.5778

Same assay, conditions: first screen of Selleck library at 100 μM, 15 Gy, 4 days post-radiation

Compound | Glutathione normalized mean intensity
Nc1nc(N)nc(-c2cc(Cl)ccc2Cl)n1 [Irsogladine] | 0.613
CC(C)n1c(/C=C/[C@H](O)C[C@H](O)CC(=O)O)c(-c2ccc(F)cc2)c2ccccc21 (racemic) [Fluvastatin sodium (Lescol)] | 0.5791
CC1=CC(=O)c2ccccc2C1=O [Menadione] | 0.4363
CCOC(=O)[C@H](CCc1ccccc1)N[C@@H](C)C(=O)N1CCC[C@H]1C(=O)O [Enalapril maleate (Vasotec)] | 0.8307
O=C([O-])c1cc(=O)c2c(OCC(O)COc3cccc4oc(C(=O)[O-])cc(=O)c34)cccc2o1.[Na+].[Na+] [Disodium Cromoglycate] | 0.6798
COc1c2occc2cc2ccc(=O)oc12 [Methoxsalen (Oxsoralen)] | 0.6397
CC(C(=O)O)c1ccc2c(c1)Cc1cccnc1O2 (centres unmarked) [Pranoprofen] | 0.7582
Cc1nnc(NS(=O)(=O)c2ccc(N)cc2)s1 [Sulfamethizole (Proklar)] | 0.4719
COc1ccc(CC2c3cc(OC)c(OC)cc3CC[N+]2(C)CCC(=O)OCCCCCOC(=O)CC[N+]2(C)CCc3cc(OC)c(OC)cc3C2Cc2ccc(OC)c(OC)c2)cc1OC (centres unmarked) [Atracurium besylate] | 0.6611
COc1cc([C@@H]2c3cc4c(cc3[C@@H](O[C@@H]3O[C@@H]5CO[C@@H](c6cccs6)O[C@H]5[C@H](O)[C@H]3O)[C@H]3COC(=O)[C@H]23)OCO4)cc(OC)c1O [Teniposide (Vumon)] | 0.4095
C[C@H]1COc2c(N3CCN(C)CC3)c(F)cc3c(=O)c(C(=O)O)cn1c23 [Levofloxacin (Levaquin)] | 0.6541
c1ccc(-c2ccc(C(c3ccccc3)n3ccnc3)cc2)cc1 (centres unmarked) [Bifonazole] | 0.6115
C[C@@H]1[C@H](O)[C@@H](C)/C=C/C=C/CC/C=C/C=C/C=C/C=C/C(O[C@H]2O[C@H](C)[C@@H](O)[C@H](N)[C@@H]2O)CC2O[C@](O)(CC(O)C(O)CCC(O)CC(O)CC(O)CC(=O)O[C@H]1C)CC(O)C2C(=O)O (some centres unmarked) [Nystatin (Mycostatin)] | 0.3498
CN(C)CCOC(c1ccccc1)c1ccccc1 [Diphenhydramine HCl (Benadryl)] | 0.6149
CC(=O)OCC(=O)[C@@]12N=C(C)O[C@@H]1C[C@H]1[C@@H]3CCC4=CC(=O)C=C[C@]4(C)[C@H]3[C@@H](O)C[C@@]12C [Deflazacort (Calcort)] | 0.5114
CNC(=C[N+](=O)[O-])NCCSCc1csc(CN(C)C)n1 [Nizatidine] | 0.5754
Bacitracin zinc | 0.6175
COc1ccc([C@@H]2Sc3ccccc3N(CCN(C)C)C(=O)[C@@H]2OC(C)=O)cc1 [Diltiazem HCL (Tiazac)] | 0.7425
CCC(C)(C)C(=O)O[C@H]1C[C@@H](C)C=C2C=C[C@H](C)[C@H](CC[C@@H]3C[C@@H](O)CC(=O)O3)[C@H]21 [Simvastatin (Zocor)] | 0.1568
